Holding throughout (assay type): in vivo
In experiment [1] the test system is Ctenocephalides felis. The experiment is described as follows: Ctenocephalides felis oral test. To be noted: application rate 100 ppm, after 2 days. The procedure: Ctenocephalides felis—Oral Test Solvent: dimethyl sulfoxide To produce a suitable active ingredient formulation, 10 mg of active ingredient are mixed with 0.5 ml of dimethyl sulfoxide. Dilution with citrated cattle blood gives the desired concentration. About 20 unfed adult cat fleas (Ctenocephalides felis) are placed into a chamber which is closed at the top and bottom with gauze. A metal cylinder whose bottom end is closed with parafilm is placed onto the chamber. The cylinder contains the blood/active ingredient formulation, which can be imbibed by the fleas through the parafilm membrane. After 2 days, the kill in % is determined. 100% means that all of the fleas have been killed; 0% means that none of the fleas have been killed.

In experiment [2] the test system is Lucilia cuprina. Kind of experiment: Lucilia cuprina test. To be noted: after 2 days, L1 larvae. As for the experimental part:
Lucilia cuprina Test Solvent: dimethyl sulfoxide To produce a suitable active ingredient formulation, 10 mg of active ingredient are mixed with 0.5 ml of dimethyl sulfoxide, and the concentrate is diluted with water to the desired concentration. About 20 L1 larvae of the Australian sheep blowfly (Lucilia cuprina) are transferred into a test vessel containing minced horsemeat and the active ingredient formulation of the desired concentration. After 2 days, the kill in % is determined. 100% means that all the larvae have been killed; 0% means that no larvae have been killed.

In experiment [3] the test system is Meloidogyne incognita. The experiment is described as follows: Meloidogyne incognita test. To be noted: application rate 20 ppm, after 14 days, formation of galls on lettuce. As for the experimental part:
Meloidogyne incognita Test Solvent: 125.0 parts by weight of acetone To produce a suitable active ingredient formulation, 1 part by weight of active compound is mixed with the stated amount of solvent and the concentrate is diluted to the desired concentration with water. Vessels are filled with sand, active compound solution, an egg/larvae suspension of the southern root-knot nematode (Meloidogyne incognita) and lettuce seeds. The lettuce seeds germinate and the plants develop. The galls develop on the roots. After 14 days, the nematicidal efficacy in % is determined by the formation of galls. 100% means that no galls were found; 0% means that the number of galls on the treated plants corresponds to the untreated control.

Experiment [4] relates to Myzus persicae. Kind of experiment: Myzus persicae oral test. To be noted: 120 h, application rate 4 ppm, after 5 days, read-out: efficacy. As for the experimental part: Myzus persicae—Oral Test Solvent: 100 parts by weight of acetone To produce a suitable active ingredient formulation, 1 part by weight of active ingredient is dissolved with the stated parts by weight of solvent and made up to the desired concentration with water. 50 μl of the active ingredient formulation are transferred into microtitre plates and made up to a final volume of 200 μl with 150 μl of IPL41 insect medium (33%+15% sugar). Subsequently, the plates are sealed with parafilm, which a mixed population of green peach aphids (Myzus persicae) within a second microtitre plate is able to puncture and imbibe the solution. After 5 days, the efficacy in % is determined. 100% means that all the aphids have been killed; 0% means that no aphids have been killed.

The subject of experiment [5] is Myzus persicae. Kind of experiment: Myzus persicae spray test (MYZUPE), Chinese cabbage leaf discs. The settings on record: foliar, 120 h. As for the experimental part:
Myzus persicae—Spray Test [table] To produce a suitable active ingredient formulation, 1 part by weight of active ingredient is dissolved with the specified parts by weight of solvent and made up to the desired concentration with water containing an emulsifier concentration of 1000 ppm. To produce further test concentrations, the formulation is diluted with emulsifier-containing water. Discs of Chinese cabbage leaves (Brassica pekinensis) infested by all stages of the green peach aphid (Myzus persicae) are sprayed with an active ingredient formulation of the desired concentration. After 5 days, the efficacy in % is determined. 100% means that all the aphids have been killed; 0% means that no aphids have been killed. Myzus persicae—Spray Test (MYZUPE) [table] To produce a suitable active ingredient formulation, 1 part by weight of active ingredient is dissolved with the specified parts by weight of solvent and made up to the desired concentration with water containing an emulsifier concentration of 1000 ppm. To produce further test concentrations, the formulation is diluted with emulsifier-containing water. Discs of Chinese cabbage leaves (Brassica pekinensis) infested by all stages of the green peach aphid (Myzus persicae) are sprayed with an active ingredient formulation of the desired concentration. After the desired period of time, the efficacy in % is determined. 100% means that all the aphids have been killed; 0% means that no aphids have been killed.

For experiment [6], the system named is Phaedon cochleariae. Kind of experiment: Phaedon cochleariae spray test, Chinese cabbage leaf discs. The settings on record: foliar, 168 h, application rate 100 g/ha, after 7 days, larvae, read-out: efficacy. As for the experimental part: Phaedon cochleariae—Spray Test
To produce a suitable active ingredient formulation, 1 part by weight of active ingredient is dissolved with the specified parts by weight of solvent and made up to the desired concentration with water containing an emulsifier concentration of 1000 ppm. To produce further test concentrations, the formulation is diluted with emulsifier-containing water.
After 7 days, the efficacy in % is determined. 100% means that all the beetle larvae have been killed; 0% means that no beetle larvae have been killed.

The subject of experiment [7] is Spodoptera frugiperda. Kind of experiment: Spodoptera frugiperda spray test, maize leaf discs. The settings on record: application rate 100 g/ha, after 7 days, caterpillars. The procedure:
Spodoptera frugiperda—Spray Test [table] To produce a suitable active ingredient formulation, 1 part by weight of active ingredient is dissolved with the specified parts by weight of solvent and made up to the desired concentration with water containing an emulsifier concentration of 1000 ppm. To produce further test concentrations, the formulation is diluted with emulsifier-containing water. Leaf discs of maize (Zea mays) are sprayed with an active ingredient formulation of the desired concentration and, after drying, populated with caterpillars of the armyworm (Spodoptera frugiperda). After 7 days, the efficacy in % is determined. 100% means that all the caterpillars have been killed; 0% means that no caterpillar has been killed.

Experiment [8] relates to Nilaparvata lugens. The experiment is described as follows: Nilaparvata lugens spray test (NILALU). To be noted: 96 h, 500 g of ai/ha, 4 dat, read-out: % efficacy. As for the experimental part: Nilaparvata lugens—Spray Test (NILALU)
(§1) To produce a suitable active ingredient formulation, 1 part by weight of active ingredient is dissolved with the specified parts by weight of solvent and made up to the desired concentration with water containing an emulsifier concentration of 1000 ppm. To produce further test concentrations, the formulation is diluted with emulsifier-containing water. If the addition of ammonium salts or/and penetrants is required, these are each added in a concentration of 1000 ppm to the formulation solution.
Rice plants (Oryza sativa) are sprayed with an active ingredient formulation of the desired concentration and then populated with larvae of the brown planthopper (Nilaparvata lugens).
[…], the efficacy in % is determined. 100% means that all of the planthoppers have been killed; 0% means that none of the planthoppers have been killed.

The test system of experiment [9] is Spodoptera frugiperda. Kind of experiment: Spodoptera frugiperda drench test (SPODFR D). To be noted: soil, 336 h, 14 dat, read-out: % efficacy. The procedure: Spodoptera frugiperda—Drench Test (SPODFR D) [table] To produce a suitable active ingredient formulation, 1 part by weight of active ingredient is mixed with the specified amounts of solvent and emulsifier, and the concentrate is diluted with water to the desired concentration, it being necessary to take into account the volume of soil which is drenched. It should be ensured that a concentration of 40 ppm of emulsifier in the soil is not exceeded. To produce further test concentrations, water is used for dilution. Maize plants (Zea mays) in pots of soil are watered with an active ingredient formulation of the desired concentration and infected with caterpillars of the armyworm (Spodoptera frugiperda). After the desired time, the kill in % is determined. 100% means that all caterpillars have been killed; 0% means that none of the caterpillars have been killed.

Experiment [10] concerns Phaedon cochleariae. Kind of experiment: Phaedon cochleariae spray test (PHAECO), cabbage leaves. To be noted: 168 h, 7 dat, read-out: % efficacy. The procedure: Phaedon cochleariae—Spray Test (PHAECO)
Solvent: 14 parts by weight of dimethylformamide
Emulsifier: alkylaryl polyglycol ether
as §1
Cabbage leaves (Brassica oleracea) are sprayed with an active ingredient formulation of the desired concentration and populated with larvae of the mustard beetle (Phaedon cochleariae).
After the desired time, the kill in % is determined. 100% means that all the beetle larvae have been killed; 0% means that no beetle larvae have been killed.

For `CCS(=O)(=O)c1ccc(-n2ncn(-c3ccc(Cl)cc3)c2=O)nc1-c1nc2cc(C(F)(F)F)nc(C)c2n1C` [Example I-001], the “efficacy (kill)” value in experiment [1], in experiment [2] (application rate 20 ppm) and in experiment [2] (application rate 100 ppm) was 100% in each case. This compound returned a nematicidal efficacy in [3] of 90%. In addition, in experiment [4], the pest or weed control at 4 ppm was determined as 90%. The Emax at 20 g/ha in experiment [5] (MYZUPE, 20 g of ai/ha, 5 dat, read-out: % efficacy) amounted to 90%. In experiment [5] (MYZUPE, 100 g of ai/ha, 5 dat, read-out: % efficacy), the Emax at 100 g/ha was 90%. Besides, the pest or weed control at 20 g/ha in experiment [5] (application rate 20 g/ha, after 5 days, read-out: efficacy) is 90%. Moreover, the pest or weed control at 100 g/ha in [5] (application rate 100 g/ha, after 5 days, read-out: efficacy) was 90%; in experiment [6], 100%. Also, the efficacy in [7] is given as 100%. Also, in experiment [8], the Emax at 500 g/ha was found to be 60%. Further, the Emax at 20 ppm in experiment [9] worked out at 60%. Also, the Emax at 0.8 ppm in experiment [10] was 100%.
